From patent publication US12286400B2, “Isofagomine salts, methods of use and formulations” (TAKEDA PHARMACEUTICAL COMPANY LIMITED, priority 2019, dated 2025)

What was measured:
[1] = Storage stress-tests at 80° C. in closed vials (CAD-HPLC, 1H-NMR, XRPD); type: physicochemical
Description: In order to obtain insight regarding thermal stability of the four crystalline IFG salts, storage stress-tests at 80° C. over several days were conducted. A sample of the free base (SP245-FB-P4), a fumarate sample (SP245-FUM-P5), a D-tartrate sample (SP245-DTA-P7), an L-tartrate sample (SP245-LTA-P5) and an oxalate sample SP245-OXA-P2 were stored at 80° C. for one, three and seven days in closed vials. Samples were tested by CAD and ^1H-NMR.
CAD-HPLC was performed in order to identify the possible adducts or thermal degradation product that could be generated upon storage under the given conditions. All samples were examined by CAD-HPLC; however, no considerable changes were observed between the starting materials and the stored samples. […] In addition, XRPD was carried out for the seven-day stored crystalline salt samples and the XRPD patterns before and after storage were essentially identical.
NMR spectroscopy was conducted on the seven-day stored samples.

mutant GCase = conditions: in vitro, fibroblasts from Gaucher patients; cited from earlier work
[2] = Dynamic vapor sorption (DVS); type: physicochemical; conditions: for additional weight gain upon storage at 95% RH: holding at 95% RH; for mass gain until 95% RH: scanning up to 95% RH; for gain in weight when increasing the RH from 0 to 80%: RH 0 to 80%
Source text: The behavior of the IFG quinate salt, sample SP245-QNC-P2, was investigated in the presence of variable water vapor pressure using DVS measurement. The result from the DVS test is presented in FIG. 6 and FIG. 6B as the DVS isotherm of sample SP245-QNC-P2: the change of relative sample weight (red curve) and relative humidity (blue curve) as a function of time.
The SP245-QNC-P2 salt prepared in example 1 is hygroscopic at high relative humidity; i.e., above about 80% RH.
The effect of changes in relative humidity on the IFG fumarate sample SP245-FUM-P4 was studied using DVS.
The IFG fumarate salt is hygroscopic at relative humidities above about 80%.
The effect of changes in relative humidity on the IFG oxalate salt sample SP245-OXA-P1 was studied using DVS.
The oxalate salt is hygroscopic above 80% RH.
The effect of changes in relative humidity on the crystalline IFG tartrate salt sample SP245-DTA-P3 was studied using DVS.

TG-FTIR thermogram = type: physicochemical
Description: The obtained crystalline form SP245-QNC-P2 is anhydrous/non-solvated. […] Decomposition is observable above 200° C.
The fumarate salt is a solvent and water-free form. Decomposition is observable above 150° C.

| Compound | CAD-HPLC Area % ([1]; 80° C., closed vial, 1 day) [%] | CAD-HPLC Area % ([1]; 80° C., closed vial, 3 days) [%] | CAD-HPLC Area % ([1]; 80° C., closed vial, 7 days) [%] | CAD-HPLC Area % ([1]; starting material) [%] | NMR after storage compared to the non-stressed sample ([1]; 80° C., seven days) | effect on activity of mutant GCase (mutant GCase) | relative humidity above which the salt is hygroscopic ([2]; DVS) | gain in weight when increasing the RH from 0 to 75% ([2]; DVS, RH 0 to 75%) | weight change when decreasing the relative humidity from 50 to 0% ([2]; DVS, RH 50 to 0%) | additional weight gain upon storage at 95% RH ([2]; DVS) [%] | mass gain until 95% RH ([2]; DVS) [%] | XRPD of sample recovered after DVS measurement [2] | Decomposition observable above (TG-FTIR thermogram) | gain in weight when increasing the RH from 0 to 80% ([2]; DVS) | relative humidity up to which the salt is not hygroscopic ([2]; DVS) [%] | mass change upon increasing the relative humidity from 0% to 70% ([2]; DVS, RH 0% to 70%) | weight loss when decreasing the relative humidity from 50 to 0% RH ([2]; DVS, RH 50 to 0%) [weight %] | gain in weight at 95% RH compared to the first cycle ([2]; DVS, second cycle) [%] |
| --- | --- | --- | --- | --- | --- | --- | --- | --- | --- | --- | --- | --- | --- | --- | --- | --- | --- | --- |
| O=C(O)C(O)C(O)C(=O)O.OC[C@H]1CNC[C@@H](O)[C@@H]1O [SP245-LTA-P5, IFG L-(+)-tartrate] | 83.9 | 84.1 | 85.3 | 84.3 |  |  |  |  |  |  |  |  |  |  |  |  |  |  |
| OC[C@H]1CNC[C@@H](O)[C@@H]1O [SP245-FB-P4, (3R,4R,5R)-3,4-dihydroxy-5-hydroxymethylpiperidine, reference compound] | 80.2 | 80.6 | 80.4 | 81.1 | several additional NMR signals were observed after storage | increase the activity of mutant GCase |  |  |  |  |  |  |  |  |  |  |  |  |
| isofagomine oxalate [SP245-OXA-P1] | 83.6 | 82.9 | 83.6 | 85.9 |  |  | 80 % RH | no gain in weight | No significant loss in weight | 90 | 30 | corresponds to the starting material |  |  |  |  |  |  |
| isofagomine quinate [SP245-QNC-P2] |  |  |  |  |  |  | about 80 % RH |  | No significant loss in weight | 70 | 20 | no form change was observed | above 200 °C | no gain in weight |  |  |  |  |
| isofagomine D-(−)-tartrate [SP245-DTA-P3] | 85 | 85.1 | 85.6 | 86.3 |  |  |  |  |  | 70 | 32 |  |  |  | 70 | No mass change |  |  |
| isofagomine fumarate [SP245-FUM-P4] | 86.9 | 87.1 | 87.8 | 87.9 |  |  | about 80 % RH |  |  | 47 | 11 | correspond to the sample SP245-FUM-P4 used as starting material | above 150 °C | no considerable gain in sample mass |  |  | < 1 | 5 |
